Experimental data from patent publication US20210189342A1, “COMPOSITIONS AND METHODS FOR MODULATING MONOCYTE AND MACROPHAGE INFLAMMATORY PHENOTYPES AND IMMUNOTHERAPY USES THEREOF” (Verseau Therapeutics, Inc., priority 2018, published 2021).

Legend:
Type in all cases: cell-based, human
TBXAS1 = assay: siRNA dose response, TBXAS1 mRNA knockdown, bDNA Assay; conditions: A549, 24 hr
Description: (§1) Dose response curves for siRNAs were generated in vitro using a variety of cell lines according to Table 4.
(§2) Briefly, cells were seeded in 96-well plates and reverse transfected with siRNA, Lipofectamine® 2000 (0.5 uL/well; ThermoFisher), and, in some cases, a reporter plasmid (50 ng/well). The reporter plasmid (psiCHECK™-2, Promega) encoded both firefly luciferase and the gene of interest fused to renilla luciferase; silencing of the gene of interest results in proportional silencing of renilla luciferase but leaves firefly luciferase unaffected as an internal control.
(§3) After 24 hr incubation at 37° C., mRNA knockdown was measured using an endpoint assay. For targets without a reporter plasmid, a branched DNA (bDNA) assay was performed according to the manufacturer's instructions (QuantiGene® Singleplex Gene Expression Assay, ThermoFisher) to measure both the target gene and GAPDH (housekeeping gene) mRNA. Data are plotted as siRNA concentration (nM) vs. remaining mRNA (ratio of target gene to GAPDH, normalized to mock siRNA-transfected cells). For targets with a reporter plasmid, a Dual-Glo® Luciferase Assay was performed according to the manufacturer's instructions (Promega) to measure firefly and renilla luciferase expression. Data are plotted as siRNA concentration (nM) vs. remaining mRNA (ratio of renilla to firefly luminescence, normalized to mock siRNA-transfected cells).
(§4) For all dose response curves, a 4-parameter logistic model was applied to determine the IC50 of each siRNA sequence (Table 5 and FIG. 2). Data shown in Table 5 and FIG. 2 represent the mean of quadruplicates, +/−standard deviation.

EVI2B = assay: siRNA dose response, EVI2B mRNA knockdown, bDNA Assay; conditions: A172, 24 hr
Description: as §1, §2, §3, §4

CD37 = assay: siRNA dose response, CD37 mRNA knockdown, bDNA Assay; conditions: THP-1, 24 hr
Description: as §1, §2, §3, §4

Work on “XD-10491: siRNA targeting TBXAS1 (sense 5'-cuGcAAGcGuuucuucGAAdTsdT-3'; antisense 5'-UUCGAAGAAACGCUUGcAGdTsdT-3'; RNA with 2'-O-methyl and phosphorothioate modifications, case key not given here, as printed in the source, key not given here)” yielded an IC50 (TBXAS1) of 0.048 nM.
Work on “XD-10489: siRNA targeting EVI2B (sense 5'-cucccAAcucuGAucAAGAdTsdT-3'; antisense 5'-UCUUGAUcAGAGUUGGGAGdTsdT-3'; RNA with 2'-O-methyl and phosphorothioate modifications, case key not given here, as printed in the source, key not given here)” yielded an IC50 (EVI2B) of 0.013 nM.
Work on “XD-10482: siRNA targeting EVI2B (sense 5'-caAccAAcAccAAuAGccAdTsdT-3'; antisense 5'-UGGCuAUUGGUGUUGGUUGdTsdT-3'; RNA with 2'-O-methyl and phosphorothioate modifications, case key not given here, as printed in the source, key not given here)” yielded an IC50 (EVI2B) of 0.017 nM.
Work on “XD-10496: siRNA targeting TBXAS1 (sense 5'-agAcGAAcuGAAugGcuuudTsdT-3'; antisense 5'-AAAGCcAUUcAGUUCGUCUdTsdT-3'; as printed in the source, key not given here)” yielded an IC50 (TBXAS1) of 0.061 nM.
For “XD-10483: siRNA targeting EVI2B (sense 5'-ccAucuGcccGuAcuucuAdTsdT-3'; antisense 5'-uAGAAGuACGGGcAGAUGGdTsdT-3'; RNA with 2'-O-methyl and phosphorothioate modifications, case key not given here, as printed in the source, key not given here)”, the IC50 (EVI2B) was 3.27 nM.
For “XD-10492: siRNA targeting TBXAS1 (sense 5'-gcccGGAuuuuGcccAAuAdTsdT-3'; antisense 5'-uAUUGGGcAAAAUCCGGGCdTsdT-3'; RNA with 2'-O-methyl and phosphorothioate modifications, case key not given here, as printed in the source, key not given here)”, the IC50 (TBXAS1) was 1.44 nM.
Work on “XD-10487: siRNA targeting EVI2B (sense 5'-cauAcuAAuuGGuguAcuudTsdT-3'; antisense 5'-AAGuAcACcAAUuAGuAUGdTsdT-3'; RNA with 2'-O-methyl and phosphorothioate modifications, case key not given here, as printed in the source, key not given here)” yielded an IC50 (EVI2B) of 0.156 nM.
“XD-10488: siRNA targeting EVI2B (sense 5'-agcuAuAAucAucauuGuAdTsdT-3'; antisense 5'-uAcAAUGAUGAUuAuAGCUdTsdT-3'; RNA with 2'-O-methyl and phosphorothioate modifications, case key not given here, as printed in the source, key not given here)” gave an IC50 (EVI2B) of 2.55 nM.
Work on “XD-10497: siRNA targeting TBXAS1 (sense 5'-ccAuGGGcGuGcAaGAcuudTsdT-3'; antisense 5'-AAGUCUUGcACGCCcAUGGdTsdT-3'; RNA with 2'-O-methyl and phosphorothioate modifications, case key not given here, as printed in the source, key not given here)” yielded an IC50 (TBXAS1) of 0.137 nM.
Substance “XD-10481: siRNA targeting EVI2B (sense 5'-cuuuGGGucAAccaAcAcAdTsdT-3'; antisense 5'-UGUGUUGGUUGACCcAAAGdTsdT-3'; RNA with 2'-O-methyl and phosphorothioate modifications, case key not given here, as printed in the source, key not given here)” has an IC50 (EVI2B) of 0.169 nM.
In the case of “XD-10495: siRNA targeting TBXAS1 (sense 5'-gaAccGAGAcGAAcuGAAudTsdT-3'; antisense 5'-AUUcAGUUCGUCUCGGUUCdTsdT-3'; RNA with 2'-O-methyl and phosphorothioate modifications, case key not given here, as printed in the source, key not given here)”, the IC50 (TBXAS1) is reported as 0.125 nM.
Work on “XD-09773: siRNA targeting CD37 (sense 5'-cgAccAAcGAcuccAcAAudTsdT-3'; antisense 5'-AUUGUGGAGUCGUUGGUCGdTsdT-3'; RNA with 2'-O-methyl and phosphorothioate modifications, case key not given here, as printed in the source, key not given here)” yielded an IC50 (CD37) of 0.311 nM.
“XD-10490: siRNA targeting TBXAS1 (sense 5'-gccGAcAGcGuucuGuuuudTsdT-3'; antisense 5'-AAAAcAGAACGCUGUCGGCdTsdT-3'; RNA with 2'-O-methyl and phosphorothioate modifications, case key not given here, as printed in the source, key not given here)” was tested, and the IC50 (TBXAS1) was 0.573 nM.
For “XD-10493: siRNA targeting TBXAS1 (sense 5'-ggAuuuuGcccAAuAAGAAdTsdT-3'; antisense 5'-UUCUuAUUGGGcAAAAUCCdTsdT-3'; RNA with 2'-O-methyl and phosphorothioate modifications, case key not given here, as printed in the source, key not given here)”, the IC50 (TBXAS1) was 0.239 nM.
“XD-10485: siRNA targeting EVI2B (sense 5'-gucAAAAAuucAccuAGGAdTsdT-3'; antisense 5'-UCCuAGGUGAAUUUUUGACdTsdT-3'; RNA with 2'-O-methyl and phosphorothioate modifications, case key not given here, as printed in the source, key not given here)” was tested, and the IC50 (EVI2B) was 1.38 nM.
Substance “XD-09778: siRNA targeting CD37 (sense 5'-cgGcucGcucGAuaccGuudTsdT-3'; antisense 5'-AACGGuAUCGAGCGAGCCGdTsdT-3'; RNA with 2'-O-methyl and phosphorothioate modifications, case key not given here, as printed in the source, key not given here)” has an IC50 (CD37) of 11.4 nM.
Substance “XD-10484: siRNA targeting EVI2B (sense 5'-ccAccAAAGucAuuuGucudTsdT-3'; antisense 5'-AGAcAAAUGACUUUGGUGGdTsdT-3'; RNA with 2'-O-methyl and phosphorothioate modifications, case key not given here, as printed in the source, key not given here)” has an IC50 (EVI2B) of 0.014 nM.
In the case of “XD-10498: siRNA targeting TBXAS1 (sense 5'-gcGuGcAAGAcuuuGAcAudTsdT-3'; antisense 5'-AUGUcAAAGUCUUGcACGCdTsdT-3'; RNA with 2'-O-methyl and phosphorothioate modifications, case key not given here, as printed in the source, key not given here)”, the IC50 (TBXAS1) is reported as 0.273 nM.
Work on “XD-10486: siRNA targeting EVI2B (sense 5'-ggAuuuAucuuAGauAcuAdTsdT-3'; antisense 5'-uAGuAUCuAAGAuAAAUCCdTsdT-3'; RNA with 2'-O-methyl and phosphorothioate modifications, case key not given here, as printed in the source, key not given here)” yielded an IC50 (EVI2B) of 0.225 nM.
